Assay results taken from patent EP0840727B1, “3-HYDROXY-2(1H)-[…] AGENTS” (priority 1995, dated 1997).
Marks after values point to notes of the source that are not given here.

Key:
Assay type in all cases: in vivo
[1] = Promoting excretion of 241Am(III) in mice by injected ligand
Source text: (§1) Animal studies were completed using methods detailed in Radiation Protection Dosimetry, in press, P. W. Durbin et al., "In Vivo Chelation of Am(III), Pu(IV), Np(V) and U(VI) in Mice by TREN-(Me-3,2-HOPO)"; Radiation Protection Dosimetry, 17, No. 1, 1989, p. 351, P. W. Durbin et al., "Removal of ^238Pu(IV) from Mice by Polycatechoylate, -Hydroxamate or -Hydroxypyridinonate Ligands"; Radiation Research, 99, 1984, p. 85, P. W. Durbin et al., "Specific Sequestering Agents for the Actinides ..."; Radiation Research, 99, 1984, p. 106, P. W. Durbin et al., "Removal of Pu and Am from Beagles and Mice ..."; Radiation Research, 81, 1980, p. 170, R. D. Lloyd et al., and P. W. Durbin et al., "Specific Sequestering Agents for the Actinides ...". The foregoing articles are hereby incorporated by reference.
(§2) Radionuclides used in the animal studies came from a variety of sources. However, they can be purchased commercially. The ^238Pu(IV) citrate and ^241Am(III) citrate solutions were prepared for animal injection by 8- to 10-fold dilution with 0.14M NaCl (pH 4) of concentrated stock solutions (0.08M sodium citrate buffer) that had been held in frozen storage at Lawrence Berkeley Laboratory (hereinafter LBL) for several years. [The ^238Pu(IV) was originally obtained from D. R. Atherton at the University of Utah Radiobiology Laboratory, Salt Lake City. The ^241Am(III) solution had been obtained many years earlier from the LBL Actinide Chemistry group.]
(§3) One of the comparative chelating agents TREN-Me-3,2-HOPO, was also tested for effectiveness in promoting excretion of ^241Am(III), ^237Np(V), and ^232U(VI) by injection into mice, as follows: Mice, in groups of five, each received an intravenous injection of (a) 1100 Bq of ^241AM(III) in 0.2 mL of citrate buffer, (b) 150 Bq of ^232UO2Cl2 plus 3.6 mg of ^235UO2Cl2 in 0.2 mL of saline, or (c) 200 Bq of ^237NpO2Cl (7.5 mg of ^237NpO2Cl) in 0.2 mL of saline. Three to five minutes later, […] of TREN-Me-3,2-HOPO was injected intraperitoneally in 0.5 mL of saline. The mice were killed 24 hours after the actinide injection, frozen, and dissected after partial thawing. The skeleton, soft tissues, and separated excreta were radioanalyzed by counting the ^241Am gamma rays, or the alpha particles emitted by ^237Np or ^232U (and its ingrowing daughters). Removal of those actinides from mice by injected TREN-Me-3,2-HOPO is summarized in Table 5, which also includes data for mice similarly treated with CaNa3-DTPA and for actinide-injected controls. […] The structure of Am(III)-TREN-Me-3,2-HOPO is considered to resemble that of the Gd(III) complexes (see example 20). Complexation of the fraction of Np(V) that is reduced in vivo to Np(IV) is considered to resemble that of Pu(IV). Complexation of U(VI) is considered to take place through binding to UO2^2+.

[2] = Promoting excretion of 237Np(V) in mice by injected ligand
Source text: as §1
The ^237Np(V) was obtained from J. Bucher of the LBL Actinide Chemistry group as NpO2Cl in 0.1 M HCl. It was diluted to the desired radioactivity concentration in 0.14M NaCl and the pH was adjusted to about 4.5 with NaOH just before use.
as §3

[3] = Promoting excretion of 238Pu(IV) in mice by orally administered ligands; conditions: of ligand by gavage three minutes after iv ^238Pu(IV); kill at 24 hours
Source text: as §1
Radionuclides used in the animal studies came from a variety of sources. However, they can be purchased commercially. […]
The novel chelating agents of the present invention and comparative compounds were tested for their effectiveness in promoting excretion of ^238Pu(IV) by oral administration to mice as follows. […] The ^238Pu(IV) in skeleton, soft tissues, and separated excreta was determined by counting the ^234U L x-rays. […]

[4] = Promoting excretion of 238Pu(IV) in mice by injected ligands; conditions: ligand 30 µmol kg^-1 ip at 1 h after iv ^238Pu(IV) citrate, kill at 24 h
Source text: as §1, §2
The novel chelating agents of the present invention and comparative compounds were tested for their effectiveness in promoting excretion ^238Pu(IV) in nice by injected ligands as follows. Mice, in groups of five, each received an intravenous injection of 1850 Bq ^238Pu(IV) in 0.2 mL of citrate buffer. One hour later, 30 µmol/kg of ligand was injected intraperitoneally in 0.5 mL of saline. The mice were killed 24 hours after the Pu injection, frozen, and dissected after partial thawing. The ^238Pu in skeleton, soft tissues, and separated excreta was determined by counting the ^234U L x-rays. Results of removal of ^238Pu(IV) from mice by injected ligands are summarized in Table 3, which also includes data for CaNa3-DTPA and other reference ligands and the Pu-injected controls. […] While the case of multidente 1,2-HOPO and catechoylamide chelating agents, octadentates are always better chelating agents than the corresponding hexadentates and tetradentates.

[5] = Am(III), ligand 30 mmol.kg-1 i.p at 3 to 5 min after actinide i.v., kill at 24 h
[6] = Am(III), ligand 30 mmol.kg-1 i.p at 3 to 5 min after actinide i.v., kill at 24 h, pooled
[7] = Np(V), ligand 30 mmol.kg-1 i.p at 3 to 5 min after actinide i.v., kill at 24 h
[8] = Np(V), ligand 30 mmol.kg-1 i.p at 3 to 5 min after actinide i.v., kill at 24 h, pooled

Cn1ccc(C(=O)NCCN(CCNC(=O)c2ccn(C)c(=O)c2O)CCNC(=O)c2ccn(C)c(=O)c2O)c(O)c1=O [TREN-Me-3,2-HOPO, N,N,N,-Tris[(3-hydroxy-1-methyl-2-oxo-1,2-dihydropyridin-4-yl)carboxamidoethyl]-amine]
Am content of tissues compared with controls (in words) ([1]; 30 µmol/kg intraperitoneally three to five minutes after actinide): the Am content of all tissues was greatly reduced
percent of injected actinide ± SD at 24 h, tissues: liver [1, 5]: 1.0 ± 0.6^d,e percent of injected actinide
percent of injected actinide ± SD at 24 h, tissues: skeleton [1, 5]: 8.1 ± 1.6^d percent of injected actinide
percent of injected actinide ± SD at 24 h, tissues: soft tissue [1, 5]: 1.6 ± 0.6^d percent of injected actinide
percent of injected actinide ± SD at 24 h, whole body [1, 5]: 11 ± 1.4^d,e percent of injected actinide
percent of injected actinide at 24 h, excreta: feces and GI contents [1, 6]: 38% of injected actinide
percent of injected actinide at 24 h, excreta: urine 0-24 h [1, 6]: 51% of injected actinide
percent of injected actinide at 24 h, tissues: kidneys [1, 6]: 0.2% of injected actinide
percent of injected actinide ± SD at 24 h, tissues: skeleton [2, 7]: 34 ± 4.5% of injected actinide
percent of injected actinide ± SD at 24 h, tissues: soft tissue [2, 7]: 3.1 ± 1.1% of injected actinide
percent of injected actinide ± SD at 24 h, whole body [2, 7]: 42 ± 11^d,e percent of injected actinide
percent of injected actinide at 24 h, excreta: feces and GI contents [2, 8]: 17% of injected actinide
percent of injected actinide at 24 h, excreta: urine 0-24 h [2, 8]: 40% of injected actinide
percent of injected actinide at 24 h, tissues: kidneys [2, 8]: 1.0% of injected actinide
Np content of the soft tissues compared with controls (in words) ([2]; intraperitoneally three to five minutes after actinide): the Np content of the soft tissues was significantly reduced
Pu removal by oral administration (in words) [3]: the more effective in both (by oral and injection) cases
percent of injected ^238Pu ± SD at 24 h, tissues: liver [4]: 5.0 ± 2.2^d percent of injected ^238Pu
percent of injected ^238Pu ± SD at 24 h, tissues: skeleton [4]: 10 ± 1.1% of injected ^238Pu
percent of injected ^238Pu ± SD at 24 h, tissues: soft tissue [4]: 2.5 ± 0.8% of injected ^238Pu
percent of injected ^238Pu ± SD at 24 h, whole body [4]: 18 ± 2.7^d percent of injected ^238Pu
percent of injected ^238Pu at 24 h, excreta: feces and GI contents ([4]; pooled samples): 43.3% of injected ^238Pu
percent of injected ^238Pu at 24 h, excreta: urine 0-24 h ([4]; pooled samples): 37% of injected ^238Pu
percent of injected ^238Pu at 24 h, tissues: kidneys ([4]; pooled samples): 0.6% of injected ^238Pu
